Usually IC50 stands for the midpoint of a concentration-inhibition curve. A word on the EC50: it is the concentration needed to bring the measured effect to its halfway point. As a reminder, the AC50 is the concentration at which the activity in the assay is half-maximal. In general, CC50 refers to the concentration that lowers cell viability or growth by half.

The target in one assay is T1, Hexokinase-1 (Homo sapiens, UniProt P19367).
T1 sequence (P19367 whole entry): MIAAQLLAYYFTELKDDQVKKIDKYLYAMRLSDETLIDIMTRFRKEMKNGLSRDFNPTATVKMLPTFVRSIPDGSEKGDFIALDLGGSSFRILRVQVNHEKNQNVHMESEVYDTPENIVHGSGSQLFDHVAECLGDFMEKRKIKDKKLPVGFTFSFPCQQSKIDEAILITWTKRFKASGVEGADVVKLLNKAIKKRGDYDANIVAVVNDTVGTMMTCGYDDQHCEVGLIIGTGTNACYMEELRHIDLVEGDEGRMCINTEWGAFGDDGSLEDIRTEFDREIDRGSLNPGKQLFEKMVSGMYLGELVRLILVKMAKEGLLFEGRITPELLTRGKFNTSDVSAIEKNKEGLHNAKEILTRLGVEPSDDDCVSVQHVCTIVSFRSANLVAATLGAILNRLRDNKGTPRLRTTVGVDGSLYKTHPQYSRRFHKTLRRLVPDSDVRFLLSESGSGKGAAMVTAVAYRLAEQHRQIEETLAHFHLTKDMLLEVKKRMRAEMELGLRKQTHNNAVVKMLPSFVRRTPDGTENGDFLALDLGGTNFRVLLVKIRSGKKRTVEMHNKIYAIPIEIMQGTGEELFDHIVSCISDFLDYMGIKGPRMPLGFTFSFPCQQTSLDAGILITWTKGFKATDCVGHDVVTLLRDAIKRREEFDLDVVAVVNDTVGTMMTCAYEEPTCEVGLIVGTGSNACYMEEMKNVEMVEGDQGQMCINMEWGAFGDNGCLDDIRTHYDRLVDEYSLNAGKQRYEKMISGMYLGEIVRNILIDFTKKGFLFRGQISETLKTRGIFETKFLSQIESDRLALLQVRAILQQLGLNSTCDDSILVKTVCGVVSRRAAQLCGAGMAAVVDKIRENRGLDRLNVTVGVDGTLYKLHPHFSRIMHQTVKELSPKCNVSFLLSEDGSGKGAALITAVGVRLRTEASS
Nature of the assay: HK1 enzyme inhibition by HKDC1 hits, SAR follow-up, selectivity assay for HKDC1 inhibitor project, biochemical, set 2, resazurin fluorescence coupled readout (AID 588356). It is filed as functional. (The colour change of resazurin is a common sign of viable cells or microbes.)

The next assay deals with T2, Hexokinase HKDC1 (Homo sapiens, UniProt Q2TB90).
T2 sequence (Q2TB90 whole entry): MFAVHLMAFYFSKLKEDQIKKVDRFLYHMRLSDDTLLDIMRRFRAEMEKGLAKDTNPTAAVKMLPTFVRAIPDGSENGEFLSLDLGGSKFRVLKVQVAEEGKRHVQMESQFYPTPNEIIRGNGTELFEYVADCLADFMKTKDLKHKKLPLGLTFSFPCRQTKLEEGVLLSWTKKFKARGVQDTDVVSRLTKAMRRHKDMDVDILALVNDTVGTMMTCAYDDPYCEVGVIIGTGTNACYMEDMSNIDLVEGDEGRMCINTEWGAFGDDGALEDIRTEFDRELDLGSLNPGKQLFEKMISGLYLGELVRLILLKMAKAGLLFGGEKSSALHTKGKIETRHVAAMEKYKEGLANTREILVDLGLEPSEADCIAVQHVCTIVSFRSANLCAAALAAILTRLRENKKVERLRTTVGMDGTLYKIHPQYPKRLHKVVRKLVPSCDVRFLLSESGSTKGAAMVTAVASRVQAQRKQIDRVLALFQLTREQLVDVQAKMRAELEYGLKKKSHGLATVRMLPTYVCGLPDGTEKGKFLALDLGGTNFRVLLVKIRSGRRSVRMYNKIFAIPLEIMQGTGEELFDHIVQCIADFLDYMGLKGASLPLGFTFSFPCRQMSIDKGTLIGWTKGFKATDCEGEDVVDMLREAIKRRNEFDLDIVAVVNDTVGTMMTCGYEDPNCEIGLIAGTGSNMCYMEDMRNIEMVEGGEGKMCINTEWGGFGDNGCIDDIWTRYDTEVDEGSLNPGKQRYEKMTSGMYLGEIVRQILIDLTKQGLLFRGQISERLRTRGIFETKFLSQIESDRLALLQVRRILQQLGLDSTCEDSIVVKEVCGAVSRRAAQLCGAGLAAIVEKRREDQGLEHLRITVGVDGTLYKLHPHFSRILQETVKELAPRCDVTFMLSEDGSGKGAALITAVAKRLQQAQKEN
Nature of the assay: HKDC1 hexokinase inhibitors, SAR follow-up, biochemical, set 2 (AID 588355). It is filed as functional.

The target in assay [1] is Luciferin 4-monooxygenase (Photinus pyralis, UniProt P08659). Description: Counter Screen for Luciferase-based Assay Positives. [Related pubchem assays: 620, 618, 411 ]. (A counterscreen serves to expose hits that act by an unwanted route or on another target.)
The test system of the next assay is HT-1080. Nature of the assay: cytotoxicity in HT1080 fibrosarcoma cells, cell-based, fluorescence readout (AID 620). It is filed as functional. To be noted: Homo sapiens.
For the next assay, the system named is HEK293. Description: inhibitors of LMP1-driven NF-kB reporter, dose response, cell-based, HEK293, luciferase, cherry-pick (AID 588343). It is filed as functional. Conditions: Homo sapiens.
Assay [2] in a line: HEp-2 cell cytotoxicity, dose response, cytotoxicity control for RSV inhibitor project, HTS (AID 2410). It is filed as functional. To be noted: human respiratory syncytial virus.
In a further assay the test system is Vero. Description: cells. To be noted: Chlorocebus sabaeus. It is filed as functional, cell-based.
Assay [3] is described as follows: inhibitors of firefly luciferase expression or activity, dose response, H4 neuroglioma cells, luminescence (AID 1990). It is filed as functional, cell-based.
Assay [4] can be described thus: luciferase reporter signal reduction – luminescence, H4-C neuroglioblastoma cells, dose response (AID 2458).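 Also: H4 neuroglioblastoma cells stably carrying a luciferase reporter gene fusion.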 In kind it is functional, cell-based.
The nature of the next assay: cells. It is filed as functional, cell-based.
Assay [5] is described as follows: Luminescence Cell-Based Dose Response HTS to Identify Inhibitors of 5'UTR Stem-Loop Driven Prion Protein mRNA Translation in H4 Neuroglioblastoma Cells. [Related pubchem assays: 1827 (Project Summary), 1813 (Primary HTS)]. It is filed as functional.
The nature of assay [6]: inhibitors of SNCA 5'UTR-driven reporter translation, confirmation, H4 neuroglioma cells, luminescence (AID 1988). It is filed as functional, cell-based.
For assay [7], the system named is BJ. Description: cells. Conditions: Homo sapiens. It is filed as functional, cell-based.
The subject of assay [8] is BJ. Description: cytotoxicity toward BJ-TERT-LT-ST fibroblasts, dose response, cell-based, RAS-independent, luminescence (AID 1935).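 Also: BJ fibroblasts immortalized with TERT plus LT and ST oncogenes.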 In kind it is functional. Conditions: Homo sapiens.
The nature of assay [9]: cytotoxicity toward DRD oncogenic fibroblasts, dose response, cell-based, non-viral oncogenic, luminescence (AID 1934). In kind it is functional. To be noted: Homo sapiens.
Assay [10] is described as follows: inhibitors of SNCA 5'UTR-driven translation, confirmation, luminescence, H4 neuroglioblastoma cells, dose confirmation (AID 2454).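 Also: H4 neuroglioblastoma cells carrying an alpha-synuclein 5'UTR luciferase reporter; potency for inhibition of the luciferase signal.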 It is filed as functional, cell-based.
Another assay concerns the target Phospholipase A2 (Homo sapiens, UniProt P04054). Nature of the assay: PLA2 enzyme inhibitors, dose response, counter-screen for ATG4B inhibitor project, biochemical, set 2 (AID 588586). In kind it is functional.
Assay [11] has as its system BJ. Nature of the assay: cytotoxicity toward Ras-transformed BJeLR fibroblasts, dose response, cell-based, alamar blue fluorescence, cherrypicked samples (AID 2631).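 Also: confirmatory dose-response assay in RAS-dependent BJ fibroblasts engineered with TERT, LT and ST, with cytotoxicity read by fluorescence.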 It is filed as functional. To be noted: Homo sapiens.
The target in another assay is T3, Cysteine protease ATG4B (Homo sapiens, UniProt Q9Y4P1).
T3 sequence (Q9Y4P1 whole entry): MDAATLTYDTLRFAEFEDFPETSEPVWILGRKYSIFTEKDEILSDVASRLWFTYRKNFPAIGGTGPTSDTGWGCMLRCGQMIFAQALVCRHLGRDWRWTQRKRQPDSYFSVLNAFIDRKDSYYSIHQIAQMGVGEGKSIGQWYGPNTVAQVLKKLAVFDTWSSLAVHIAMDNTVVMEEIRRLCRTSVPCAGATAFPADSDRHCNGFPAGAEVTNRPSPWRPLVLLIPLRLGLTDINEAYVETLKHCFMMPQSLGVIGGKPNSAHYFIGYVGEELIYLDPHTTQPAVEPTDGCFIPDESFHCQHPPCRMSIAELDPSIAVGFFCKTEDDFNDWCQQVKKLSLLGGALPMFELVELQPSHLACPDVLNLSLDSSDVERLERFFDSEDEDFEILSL
Description: ATG4B protease inhibitors, dose response, biochemical, fluorescence, set 2 (AID 588584). In kind it is functional.

Assay [12] deals with Escherichia coli. Nature of the assay: microbe, parasite or virus in culture.
For assay [13], the system named is Escherichia coli. Description: microbe, parasite or virus in culture. This is another data set of the same source.

Active and inactive are the calls of the source. Rule as the data show it, for most assays here: actives have a measured EC50 and inactives only a lower limit.

Chain of Phospholipase A2 (P04054 whole entry): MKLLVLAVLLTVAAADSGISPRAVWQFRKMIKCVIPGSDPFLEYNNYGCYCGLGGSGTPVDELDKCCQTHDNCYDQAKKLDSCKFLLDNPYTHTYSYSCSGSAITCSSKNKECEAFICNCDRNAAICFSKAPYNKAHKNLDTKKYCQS
Chain of Luciferin 4-monooxygenase (P08659 whole entry): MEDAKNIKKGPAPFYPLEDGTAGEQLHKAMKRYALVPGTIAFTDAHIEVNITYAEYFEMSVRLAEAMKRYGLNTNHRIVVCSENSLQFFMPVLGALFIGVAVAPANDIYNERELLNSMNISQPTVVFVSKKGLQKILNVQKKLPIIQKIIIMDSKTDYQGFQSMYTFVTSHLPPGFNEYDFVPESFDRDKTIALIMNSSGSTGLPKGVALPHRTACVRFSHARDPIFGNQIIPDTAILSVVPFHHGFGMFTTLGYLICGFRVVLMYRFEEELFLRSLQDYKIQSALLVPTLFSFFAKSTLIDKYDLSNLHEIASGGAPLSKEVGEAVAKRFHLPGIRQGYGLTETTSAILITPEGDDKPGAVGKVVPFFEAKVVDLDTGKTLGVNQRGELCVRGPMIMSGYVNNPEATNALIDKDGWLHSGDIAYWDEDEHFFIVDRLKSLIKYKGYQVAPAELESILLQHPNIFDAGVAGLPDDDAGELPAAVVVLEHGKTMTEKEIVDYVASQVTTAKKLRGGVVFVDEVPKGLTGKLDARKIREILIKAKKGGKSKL

As for `CNc1cc2n(c(=O)n1)CCc1cc(OC)c(OC)cc1-2`, the IC50 at Hexokinase-1 and on Hexokinase HKDC1 was > 80 µM (inactive) in each case.
`Cc1nc(Nc2nc3ccccc3o2)nc2c1CCC2`: the EC50 in assay [1] was 5.88 µM (active); with HT-1080 it was > 50 µM (not active). In addition, in the assay on HEK293, the AC50 was 2.54 µM (active).
On to `Cc1cccc(NC(=O)CSc2nc3ccccc3nc2N2CCCC2)c1`, for which the CC50 in assay [2] was 13.7 µM (active). In the assay on Vero, the IC50 was > 25 µM (active).
Regarding `CCC1=Nc2cc(C(=O)NCc3ccco3)ccc2Sc2ccc(C)cc21`, the EC50 in assay [3] is 0.25 µM (active); in [4], 0.756 µM (active); in the assay “cells”, 0.919 µM (active); in [5], 0.243 µM (active); in [6] it was < 0.1 µM (active); in the assay with BJ [7], 13.1 µM (inconclusive). In addition, the EC50 is 0.597 µM (active) in the assay with BJ [8], 0.496 µM (active) in assay [9], > 12 µM (inconclusive) in [10] and < 0.104 µM (active) in the assay with BJ [11]. Moreover, the IC50 at Phospholipase A2 is 51.7 µM (inactive); at Cysteine protease ATG4B, > 80 µM (inactive).
On to `CCN(CC)CC(=O)c1c[nH]c2ccc(OC)cc12`, for which the AC50 in the assay with Escherichia coli [12] was 26.5 µM (active); in the assay on Escherichia coli [13], 25.6 µM (active).

These data come from ChEMBL document CHEMBL1201862, “PubChem BioAssay data set” (2004).
